Source: patent US20210268070A1, “Use of Immunomodulators to Control Infection and Stimulate Healing in Normal and Diabetic Wounds” (priority 2018, published 2021)
“Also recorded” adds a separate entry of the source.

Tests used:
[1] = test system: P. aeruginosa PA103; assay: Wound model of infection with PA103 in normal (C57BL) mice; assay type: in vivo; settings: for infection control against P. aeruginosa PA103 in normal wounds: C57B mice, immunomodulator added locally at time of infection, compared to PBS, FIGS. 3A, 4A, 4B, 6A
Method: The implant model of infection in C57B mice was used for 10^6 PA103 (FIG. 2A) or 10^6 USA300 MRSA (FIG. 2C). The wound model of infection was used for 10^6 PA103 in C57BL mice (FIG. 2B) or diabetic db/db mice (FIG. 2D). Infection was carried out at the time of surgery by adding bacteria directly to the surgical sites. Immunomodulators, namely, LPS (10 ng or 100 ng), fMLP (10 ng or 100 ng), CCL3 (1 μg) were added topically at the surgical sites at the time of surgery & infection. GM-CSF (10 μg/kg), tobramycin (Tob at 3.5 mg/kg), and vancomycin (40 mg/kg) were added systemically by i.p. injection 1 h before surgical implantation and infection. Infection levels were determined 24 h following infection (N>4 animals/group; NS=not significant, * p<0.01, ** p<0.001, ***p<0.0001 One-way ANOVA).
(15A) C57BL/6 mice received 40 mg/kg prophylaxis (Sys) vancomycin (Vanc) or 3.5 mg/kg tobramycin (Tobra) by i.p. injection. (15A) 1 h after antibiotic administration, 106 CFU of USA300 was added to implant after insertion into facia (Implant Model). (15B) 1 h after antibiotic administration, 10^6CFU of USA300 or 106CFU PA103 (Pa) were added full-thickness wounds in of C57BL/6 (Wound Model). Infection levels at implant surgical site (Tissue & Implant) or a distant site (Spleen), or wound tissues were assessed 24 h following infection. (N>4 animals/group, * p<0.01, ***p<0.0001, One-way ANOVA).
We assessed these immunomodulators for their ability to control wound and/or implant SS's in normal (C57BL/6) or diabetic (db/db) mice. We acknowledge that diabetic individuals are not as immunocompromised as other immunocompromised patient groups. […] All immunomodulators were added locally at the surgical sites at the time of infection, except GM-CSF (10 μg/kg) which was administered systemically by i.p. injection 1 h prior to surgery per its FDA-approved route of delivery. […] CCL3 and GM-CSF are also tested using the implant model of infection. Here, we tested CCL3 and GM-CSF in the wound model of infection in C57B mice.
Implant surgery and wound surgery and surgical site infection are performed according to the following method. On the day of surgery, all mice are anesthetized by an intraperitoneal injection of a ketamine/xylazine mixture (90 mg/kg ketamine+5 mg/kg xylazine for mice). The back of the animals is shaved using an electric shave and scrubbed with alcohol swabs 3 times, a topical antiseptic solution (Hibiclens; chlorhexidine gluconate) is applied to the skin. The surgical procedures are performed with sterile instruments, sterile surgical gloves, and aseptic techniques as follows. For wound surgical procedure, a sterile biopsy punch (5-7 mm diameter) is used to punch through the full thickness of the back skin below the shoulder blades. Four 5-7 mm skin wounds are made on the back of each mouse. Wounds placed in this area cannot be reached by the animals and therefore are protected from self-licking. For implant surgery, a 4-mm long lateral skin incision is made on the upper back, and the skin is retracted. The space above the muscle is opened using blunt dissection with fine forceps, to create a rostral fascia indentation. Then, immunomodulators at indicated concentrations (in a 20 μL volume) or PBS control are injected into the fascia indentation.

[2] = test system: leukocytes; assay: Leukocyte migration (H&E staining) and activation (MPO ELISA) in normal wound; assay type: in vivo, C57B mice; settings: for leukocyte migration and neutrophil activation in a normal wound: compared to PBS, FIGS. 10A-10D
Description: FIGS. 10A-10D illustrate that immunomodulatory treatment enhances leukocyte migration and neutrophil activation in a normal wound. (10A, 10B—CCL3, 10C—LPS, fMLF, 10D—GM-CSF), N=4; Significance determined as compared to PBS *<0.05, **p<0.01, ***p<0.001.
We next examined the impact of CCL3 topical treatment on leukocyte migration by H&E staining, and on leukocyte activation by myeloperoxidase (MPO) measurements by ELISA. (MPO is primarily used as a marker for neutrophil activation but it can also be expressed to lesser extent in macrophages).

[3] = test system: inflammatory cytokines; assay: Production of inflammatory cytokines in normal wound; assay type: in vivo, mice
Method: FIGS. 7A and 7B illustrate that CCL3 treatment increases the production of inflammatory cytokines in a normal wound. N=4; Significance determined as compared to PBS *<0.05, **p<0.01, ***p<0.001.
FIGS. 8A and 8B illustrate that LPS and fMLP treatment increases the production of inflammatory cytokines in a normal wound. N=4; LPS (10 ng) and fMLP (100 nM) directly added to wounds at the time of infection after wounding. Significance determined as compared to PBS *<0.05, **p<0.01.
Tissue-Tek O.C.T. (Sakura); Lysing Matrix D (MP Biomedicals); Collagenase (Roche Diagnostics), Hematoxylin and eosin (H&E); DNase 1 (Sigma-Aldrich); Hyluronidase, Streptozotocin (Sigma-Aldrich); Trizol (Invitrogen); CD45 antibody (eBioscience, Inc); Ly6C; Ly6G; CD11b; CD3 (BioLegend); CD68; GAPDH (Sigma-Aldrich). Ly6G and CD68 (Abcam); Primer pairs for GAPDH were from Qiagen. Masson's trichrome stain (Sigma-Aldrich); Picrosirius red (Abcam); Fibronectin (Chemicon International); Insulin slow-release capsules (Linplant; LinShin, Toronto, Canada) CCL3 (R&D Systems) fMLP (Sigma-Aldrich); II-1β ELISA (R&D Systems); TNF-α ELISA (R&D Systems).

[4] = LPS (10 ng) and fMLP (100 nM) directly added to wounds at the time of infection after wounding, FIGS. 8A and 8B
[5] = topical CCL3 to C57B wounds, regardless of infection, FIG. 10A, 10B

Row | Molecule | infection control against P. aeruginosa PA103 in normal wounds [1] | leukocyte migration and neutrophil activation in a normal wound [2] | production of inflammatory cytokines in a normal wound [3, 4] | controlling PA103 infection, compared with prophylaxis tobramycin ([1]; C57B mice wound model, topical CCL3 1 μg, both at 10^3 and 10^6 CFU, tobramycin 3.5 mg/kg i.p., FIG. 2B) | leukocytes' activation in the wound (myeloperoxidase, MPO, by ELISA) [2, 5] | leukocytes' migration in the wound (H&E staining) [2, 5] | production of inflammatory cytokines in a normal wound ([3]; CCL3 treatment, compared to PBS, FIGS. 7A and 7B)
1 | CSCC[C@H](NC=O)C(=O)N[C@@H](CC(C)C)C(=O)N[C@@H](Cc1ccccc1)C(=O)O [fMLP, N-Formylmethionyl-leucyl-phenylalanine] | enhance; also recorded: significantly improved | enhances | increases | – | – | – | –
2 | lipopolysaccharide [LPS] | enhance; also recorded: significantly improved | enhances | increases | – | – | – | –
3 | Chemokine (C-C motif) ligand 3 (protein, listed as Homo sapiens, class 1 immunomodulator) MQVSTAALAVLLCTMALCNQFSASLAADTPTACCFSYTSRQIPQNFIADYFETSSQCSKPGVIFLTKRSRQVCADPSEEWVQKYVSDLELSA | enhances; also recorded: effective | enhances | – | as effective | significant increases | significant increases | increases
